Publication PMC10458514, “Structure–Activity Relationship Studies on 6-Chloro-1-phenylbenzazepines Leads to the Identification of a New Dopamine D1 Receptor Antagonist” (Molecules, 2023)
Values joined by “and” are separate entries in the source; they are usually repeats but may differ in a detail not shown here. Equal entries are not always repeated. Where two headings read alike, the source gives them in different places.

Key:
[1] = target: T1, D1R (dopamine D1 receptor) (Homo sapiens, UniProt P21728); settings: for Selectivity D5/D1: ratio of Ki D5R to Ki D1R
T1 sequence (P21728 whole entry): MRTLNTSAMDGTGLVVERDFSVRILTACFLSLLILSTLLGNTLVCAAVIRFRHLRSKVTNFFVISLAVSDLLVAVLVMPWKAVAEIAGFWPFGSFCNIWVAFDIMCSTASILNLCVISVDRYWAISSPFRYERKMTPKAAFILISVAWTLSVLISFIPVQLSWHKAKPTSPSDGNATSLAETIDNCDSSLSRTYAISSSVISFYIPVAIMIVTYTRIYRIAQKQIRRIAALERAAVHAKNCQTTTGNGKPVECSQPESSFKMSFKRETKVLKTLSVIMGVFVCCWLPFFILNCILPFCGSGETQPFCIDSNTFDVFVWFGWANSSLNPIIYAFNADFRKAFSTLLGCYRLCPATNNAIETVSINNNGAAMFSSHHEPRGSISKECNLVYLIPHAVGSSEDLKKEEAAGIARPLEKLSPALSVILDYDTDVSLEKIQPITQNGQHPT

[2] = target: T1, D1R (dopamine D1 receptor); experiment: biochemical; settings: [3H]SCH23390 radioligand, triplicate, na = not active (<50% inhibition in a primary assay when tested at 10 µM)
[3] = target: T2, D5R (dopamine D5 receptor) (Homo sapiens, UniProt P21918); experiment: biochemical; settings: [3H]SCH23390 radioligand, triplicate, na = not active (<50% inhibition in a primary assay when tested at 10 µM)
T2 sequence (P21918 whole entry): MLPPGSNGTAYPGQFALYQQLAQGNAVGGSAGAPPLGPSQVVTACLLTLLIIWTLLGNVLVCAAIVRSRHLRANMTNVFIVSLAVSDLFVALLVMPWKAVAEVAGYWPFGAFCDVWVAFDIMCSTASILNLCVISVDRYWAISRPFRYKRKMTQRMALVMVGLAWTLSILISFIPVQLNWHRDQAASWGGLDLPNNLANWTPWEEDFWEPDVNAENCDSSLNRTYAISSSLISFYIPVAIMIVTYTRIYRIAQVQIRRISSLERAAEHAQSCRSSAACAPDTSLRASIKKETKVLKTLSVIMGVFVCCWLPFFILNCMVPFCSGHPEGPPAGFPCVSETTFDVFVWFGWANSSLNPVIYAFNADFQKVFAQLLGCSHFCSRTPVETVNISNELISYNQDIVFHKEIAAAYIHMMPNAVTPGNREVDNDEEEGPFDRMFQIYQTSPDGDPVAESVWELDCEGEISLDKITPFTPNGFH

D1R [4] = target: T3, D1R (Homo sapiens, UniProt P21728); experiment: D1R cAMP functional assay, agonist format (Eurofins DiscoverX HitHunter); format: cell-based; settings: agonist mode
T3 construct: Eurofins Discover X
T3 sequence (P21728 whole entry): as the sequence (P21728 whole entry) above
Method: (§1) In the agonist format, cells were first incubated with sample to induce a response. Then, the media was aspirated from the cells and replaced with 15 μL 2:1 HBSS/10 mM Hepes: cAMP XS + Ab reagent. Sample stocks were diluted to generate 4X sample in assay buffer. […] The final assay concentration used was 1%. In antagonist mode, the cells were pre-incubated with a sample followed by agonist challenge at the EC80 concentration. The media was aspirated from cells and replaced with 10 μL 2:1 HBSS/10 mM Hepes: cAMP XS + Ab reagent. […] For agonist and antagonist assays, signal detection was performed as follows. […] This was followed by incubation with 20 μL cAMP XS + EA reagent for 3 h at room temperature. The microplates were read following signal generation with a PerkinElmer Envision™ instrument for chemiluminescent signal detection.

D1R [5] = target: T3, D1R; experiment: D1R cAMP functional assay, antagonist format (Eurofins DiscoverX HitHunter); format: cell-based; settings: antagonist mode; for Max Response, antagonist format: agonist challenge at EC80, in % (unit assumed)
Method: as §1

D1R [6] = target: T3, D1R; settings: cited from earlier work
D5R = settings: cited from earlier work
[7] = target: T2, D5R (dopamine D5 receptor); settings: read-out: Ki D5R; [3H]SCH23390 radioligand; triplicate; na = not active (<50% inhibition in a primary assay when tested at 10 µM)
[8] = [3H]SCH23390 radioligand, triplicate, na = not active (<50% inhibition in a primary assay when tested at 10 µM)

melting point [°C] | Ki [2] | Molecule | further results
184.6 to 186.1 |  | Cc1cccc(C2CN(C)CCc3c2cc(NC(N)=O)c(O)c3Cl)c1 (centres unmarked) [Compound 23b, 1-(9-chloro-8-hydroxy-3-methyl-5-(m-tolyl)-2,3,4,5-tetrahydro-1H-benzo[d]azepin-7-yl)urea] | 
142.6 to 144 | 78 nM and 77.9 nM | Cc1cccc(C2CN(C)CCc3c2ccc(O)c3Cl)c1 (centres unmarked) [Compound 15b, 6-chloro-3-methyl-1-(m-tolyl)-2,3,4,5-tetrahydro-1H-benzo[d]azepin-7-ol] | Selectivity D5/D1 [1]: 2.1; Ki [3]: 165 ± 4.9 nM
154.4 to 156.2 |  | CC(=O)Nc1cc2c(c(Cl)c1O)CCN(C)CC2c1ccccc1 (centres unmarked) [Compound 18a, N-(9-chloro-8-hydroxy-3-methyl-5-phenyl-2,3,4,5-tetrahydro-1H-benzo[d]azepin-7-yl)acetamide] | 
151.6 to 152.8 | 1360 ± 14 nM | CC(=O)Nc1cc2c(c(Cl)c1O)CCN(C)CC2c1cccc(C)c1 (centres unmarked) [Compound 18b, N-(9-chloro-8-hydroxy-3-methyl-5-(m-tolyl)-2,3,4,5-tetrahydro-1H-benzo[d]azepin-7-yl)acetamide] | 
156.2 to 157.9 | 634 ± 12.5 nM | CCCC(=O)Nc1cc2c(c(Cl)c1O)CCN(C)CC2c1cccc(C)c1 (centres unmarked) [Compound 19b, N-(9-chloro-8-hydroxy-3-methyl-5-(m-tolyl)-2,3,4,5-tetrahydro-1H-benzo[d]azepin-7-yl)butyramide] | Selectivity D5/D1 [1]: 4.7; Ki [3]: 2960 ± 29.6 nM
143.5 to 145.1 | 30 nM and 30.1 nM | CN1CCc2c(ccc(O)c2Cl)C(c2ccccc2)C1 (centres unmarked) [Compound 15a, 6-chloro-3-methyl-1-phenyl-2,3,4,5-tetrahydro-1H-benzo[d]azepin-7-ol] | RC50 (EC50), agonist format (D1R [4]): No D1R agonistic activity; Max Response, agonist format (D1R [4]; in % (unit assumed)): 17.22; EC50 (D1R [4]; read-out: RC50 (EC50), agonist format): > 10 µM; Max Response, antagonist format (D1R [5]): 66.12; IC50 (D1R [5]; agonist challenge at EC80, read-out: RC50 (IC50), antagonist format): 130 nM; Selectivity D5/D1 [1]: 6 and 6.2; Ki [3]: 187 nM
198.7 to 200 |  | CN1CCc2c(cc([N+](=O)[O-])c(O)c2Cl)C(c2ccccc2)C1 (centres unmarked) [Compound 16a, 6-chloro-3-methyl-8-nitro-1-phenyl-2,3,4,5-tetrahydro-1H-benzo[d]azepin-7-ol] | Ki D1R [1, 8]: no affinity
141 to 142.1 | 1762 ± 17.6 nM | CN1CCc2c(cc(NC(N)=O)c(O)c2Cl)C(c2ccccc2)C1 (centres unmarked) [Compound 23a, 1-(9-chloro-8-hydroxy-3-methyl-5-phenyl-2,3,4,5-tetrahydro-1H-benzo[d]azepin-7-yl)urea] | 
134.8 to 136 | 72 nM and 71.9 nM | Cc1cccc(C2CN(C)CCc3c2cc(N)c(O)c3Cl)c1 (centres unmarked) [Compound 17b, 8-amino-6-chloro-3-methyl-1-(m-tolyl)-2,3,4,5-tetrahydro-1H-benzo[d]azepin-7-ol] | Selectivity D5/D1 [1]: 2.0; Ki [3]: 146 ± 5.8 nM
210.4 to 212.6 | 4350 nM | Cc1cccc(C2CN(C)CCc3c2cc([N+](=O)[O-])c(O)c3Cl)c1 (centres unmarked) [Compound 16b, 6-chloro-3-methyl-8-nitro-1-(m-tolyl)-2,3,4,5-tetrahydro-1H-benzo[d]azepin-7-ol] | 
201.4 to 202.8 |  | O=[N+]([O-])c1cc2c(c(Cl)c1O)CCNCC2c1ccccc1 (centres unmarked) [Compound 24a, 6-chloro-8-nitro-1-phenyl-2,3,4,5-tetrahydro-1H-benzo[d]azepin-7-ol] | Ki D1R [1, 8]: no affinity
 | 161 nM | CN1CCc2c(ccc(O)c2Cl)C(c2ccc(O)cc2)C1 (centres unmarked) [Compound 15d] | Selectivity D5/D1 [1]: 2.6; Ki [3]: 413 ± 9.8 nM
161.4 to 163.1 | 1500 ± 18.9 nM | C=CC(=O)Nc1cc2c(c(Cl)c1O)CCN(C)CC2c1ccccc1 (centres unmarked) [Compound 21a, N-(9-chloro-8-hydroxy-3-methyl-5-phenyl-2,3,4,5-tetrahydro-1H-benzo[d]azepin-7-yl)acrylamide] | 
 | 4980 ± 61.3 nM | C=CC(=O)Nc1cc2c(c(Cl)c1O)CCN(C)CC2c1cccc(C)c1 (centres unmarked) [Compound 21b] | 
148.7 to 150.1 | 1970 ± 41.4 nM | CCCC(=O)Nc1cc2c(c(Cl)c1O)CCN(C)CC2c1ccccc1 (centres unmarked) [Compound 19a, N-(9-chloro-8-hydroxy-3-methyl-5-phenyl-2,3,4,5-tetrahydro-1H-benzo[d]azepin-7-yl)butyramide] | 
137 to 138.9 | 210 nM | CN1CCc2c(cc(N)c(O)c2Cl)C(c2ccccc2)C1 (centres unmarked) [Compound 17a, 8-amino-6-chloro-3-methyl-1-phenyl-2,3,4,5-tetrahydro-1H-benzo[d]azepin-7-ol] | Selectivity D5/D1 [1]: 1.3; Ki [3]: 270 ± 8.4 nM
144.6 to 145.9 | 2940 ± 36.2 nM | CC(C)C(=O)Nc1cc2c(c(Cl)c1O)CCN(C)CC2c1ccccc1 (centres unmarked) [Compound 20a, N-(9-chloro-8-hydroxy-3-methyl-5-phenyl-2,3,4,5-tetrahydro-1H-benzo[d]azepin-7-yl)isobutyramide] | 

The remaining lines, values behind:

Molecule | melting point [°C] | Ki [2] | further results
C=CCN1CCc2c(ccc(O)c2Cl)C(c2cccc(C)c2)C1 (centres unmarked) [Compound 14b, 3-allyl-6-chloro-1-(m-tolyl)-2,3,4,5-tetrahydro-1H-benzo[d]azepin-7-ol] | 151.3 to 152.7 | 281 nM | Selectivity D5/D1 [1]: 2.6; Ki [3]: 741 ± 12.5 nM
C=CCN1CCc2c(ccc(OC)c2Cl)C(c2ccc(OC)cc2)C1 (centres unmarked) [Compound 12c, 3-allyl-6-chloro-7-methoxy-1-(4-methoxyphenyl)-2,3,4,5-tetrahydro-1H-benzo[d]azepine] | 155.4 to 157.1 |  | 
Cc1cccc(C2CNCCc3c2ccc(O)c3Cl)c1 (centres unmarked) [Compound 11b, 6-chloro-1-(m-tolyl)-2,3,4,5-tetrahydro-1H-benzo[d]azepin-7-ol] | 122.3 to 124.2 |  | Ki D1R [1, 8]: no affinity
COc1ccc2c(c1Cl)CCNCC2c1ccccc1 (centres unmarked) [Compound 10a, 6-chloro-7-methoxy-1-phenyl-2,3,4,5-tetrahydro-1H-benzo[d]azepine] | 156.4 to 158 |  | 
Oc1ccc2c(c1Cl)CCNCC2c1ccccc1 (centres unmarked) [Compound 11a, 6-chloro-1-phenyl-2,3,4,5-tetrahydro-1H-benzo[d]azepin-7-ol] | 134.6 to 135.8 |  | Ki D1R [1, 8]: no D1R affinity; Ki [3]: 470 nM
COc1ccc(C2CNCCc3c2ccc(OC)c3Cl)cc1 (centres unmarked) [Compound 10c, 6-chloro-7-methoxy-1-(4-methoxyphenyl)-2,3,4,5-tetrahydro-1H-benzo[d]azepine] | 151.3 to 152.7 |  | 
COc1ccc2c(c1Cl)CCN(C)CC2c1cccc(C)c1 (centres unmarked) [Compound 13b, 6-chloro-7-methoxy-3-methyl-1-(m-tolyl)-2,3,4,5-tetrahydro-1H-benzo[d]azepine] | 174.5 to 176.1 |  | 
CN1CCc2cc(Cl)c(O)cc2[C@H]2c3ccccc3CC[C@@H]21 [SCH 39166, reference compound] |  |  | Max Response, antagonist format (D1R [5]): 102.24
Oc1ccc(C2CNCCc3c2ccc(O)c3Cl)cc1 (centres unmarked) [Compound 11d, 6-chloro-1-(4-hydroxyphenyl)-2,3,4,5-tetrahydro-1H-benzo[d]azepin-7-ol] | 135.8 to 136.9 |  | Ki D1R [1, 8]: did not bind to D1R
C=CCN1CCc2c(ccc(O)c2Cl)C(c2ccc(O)cc2)C1 (centres unmarked) [Compound 14d, 3-allyl-6-chloro-1-(4-hydroxyphenyl)-2,3,4,5-tetrahydro-1H-benzo[d]azepin-7-ol] | 132.5 to 134.1 |  | Ki D1R [1, 8]: no affinity
C=CCN1CCc2c(ccc(OC)c2Cl)C(c2cccc(C)c2)C1 (centres unmarked) [Compound 12b, 3-allyl-6-chloro-7-methoxy-1-(m-tolyl)-2,3,4,5-tetrahydro-1H-benzo[d]azepine] | 172.1 to 173.8 |  | 
C=CCN1CCc2c(ccc(O)c2Cl)C(c2ccccc2)C1 (centres unmarked) [Compound 14a] |  | 102 ± 5.2 nM | Selectivity D5/D1 [1]: 2.9; Ki [3]: 297 ± 19.3 nM
C=CCN1CCc2c(cc(O)c(O)c2Cl)C(c2cccc(C)c2)C1 (centres unmarked) [SKF 83822] |  |  | Ki (D1R [6]): 0.2 nM; Ki (D5R): 0.3 nM
COc1ccc2c(c1Cl)CCNCC2c1cccc(C)c1 (centres unmarked) [Compound 10b, 6-chloro-7-methoxy-1-(m-tolyl)-2,3,4,5-tetrahydro-1H-benzo[d]azepine] | 180.4 to 181.8 |  | 
N-(9-chloro-8-hydroxy-3-methyl-5-phenyl-2,3,4,5-tetrahydro-1H-benzo[d]azepin-7-yl)methanesulfonamide [Compound 22] |  |  | Selectivity D5/D1 [1]: 1.5; Ki ([1]; read-out: Ki D1R, [3H]SCH23390 radioligand, triplicate, na = not active (<50% inhibition in a primary assay when tested at 10 µM)): 113 nM and 114 nM; Ki [7]: 166 ± 6.8 nM
COc1ccc(C2CN(C)CCc3c2ccc(OC)c3Cl)cc1 (centres unmarked) [Compound 13c, 6-chloro-7-methoxy-1-(4-methoxyphenyl)-3-methyl-2,3,4,5-tetrahydro-1H-benzo[d]azepine] | 155.4 to 157.1 |  | 
Cc1cccc(C2CNCCc3c2cc([N+](=O)[O-])c(O)c3Cl)c1 (centres unmarked) [Compound 24b, 6-chloro-8-nitro-1-(m-tolyl)-2,3,4,5-tetrahydro-1H-benzo[d]azepin-7-ol] | 188.9 to 191.2 | 38 nM and 38.1 nM | Selectivity D5/D1 [1]: 2.6; Ki [3]: 97.9 ± 3.6 nM
